In patent publication US20260130933A1, “PHARMACEUTICAL COMPOSITION FOR PREVENTION OR TREATMENT OF NEPHROPATHY AND/OR DIABETES MELLITUS, COMPRISING ENAVOGLIFLOZIN” (DAEWOONG PHARMACEUTICAL CO., LTD., priority 2022, published 2026):

Experiment: Example 2: phase 3 trial, enavogliflozin 0.3 mg vs dapagliflozin 10 mg once a day for 24 weeks added to metformin in patients with type 2 diabetes (same efficacy, exploratory and safety endpoints)
Assay type: in vivo, human
Protocol: Subjects who met the inclusion/exclusion criteria were administered a placebo of the clinical trial drug under single-blind (subject blinding) conditions during a 2-week run-in period while continuing to receive metformin. […] The randomized subjects were administered two tablets of the clinical trial drug for each administration group once a day, and then visited the institution at weeks 6, 12, 18, and 24 during the 24-week administration period to conduct efficacy and safety evaluations.
• 1. Change in HbA1c at week 24 after administration of clinical trial drug compared to Visit 2 (randomization)
• 1. Change in HbA1c at each time point of weeks 6, 12, and 18 after administration of clinical trial drug compared to Visit 2 (randomization) • 2. Change in FPG at each time point of weeks 6, 12, 18, and 24 after administration of clinical trial drug compared to Visit 2 (randomization) • 3. Proportion of subjects achieving HbA1c<7% at each time point of weeks 6, 12, 18, and 24 after administration of clinical trial drug • 4. Proportion of subjects achieving HbA1c<6.5% at each time point of weeks 6, 12, 18, and 24 after administration of clinical trial drug • 5. Proportion of subjects achieving therapeutic response (HbA1c change (HbA1c at Visit 2-HbA1c at each evaluation time point)>0.5% or HbA1c<7% at each evaluation time point compared to Visit 2 (randomization)) at each time point of weeks 6, 12, 18 and 24 after administration of clinical trial drug
• 1. Change in fasting c-peptide at each time point of weeks 6, 12, 18, and 24 after administration of clinical trial drug compared to Visit 2 (randomization) • 2. Change in body weight at each time point of weeks 6, 12, 18, and 24 after administration of clinical trial drug compared to Visit 2 (randomization) • 3. Change in fasting lipid concentration (total cholesterol, LDL-C, HDL-C, and triglycerides) at each time point of weeks 6, 12, 18, and 24 after administration of clinical trial drug compared to Visit 2 (randomization) • 4. Changes in systolic or diastolic blood pressure at each time point of weeks 6, 12, 18, and 24 after administration of clinical trial drug compared to Visit 2 (randomization) • 5. Changes in β-cell function and insulin resistance measured by HOMA-β and HOMA-IR at each time point of weeks 6, 12, 18, and 24 after administration of clinical trial drug compared to Visit 2 (randomization) • 6. Changes in renal function-related indicators (UACR, UGCR) measured by UACR at each time point of weeks 6, 12, 18, and 24 after administration of clinical trial drug compared to Visit 2 (randomization) • 7. Changes in obesity-related indicators (adiponectin, leptin) at each time point of weeks 6, 12, 18, and 24 after administration of clinical trial drug compared to Visit 2 (randomization)

[1] = week 18, per-protocol set, enavogliflozin 0.3 mg, dapagliflozin 10 mg
[2] = week 24, listed as enavogliflozin
[3] = week 24, modified per-protocol set 1, enavogliflozin 0.3 mg, dapagliflozin 10 mg
[4] = week 24, per-protocol set, enavogliflozin 0.3 mg vs dapagliflozin 10 mg
[5] = week 24, per-protocol set, enavogliflozin 0.3 mg, dapagliflozin 10 mg

OC[C@H]1O[C@@H](c2cc(Cc3ccc(C4CC4)cc3)c(Cl)c3c2CCO3)[C@H](O)[C@@H](O)[C@@H]1O [Enavogliflozin, (2S,3R,4R,5S,6R)-2-(7-chloro-6 (4-cyclopropylbenzyl)-2,3-dihydrobenzofuran-4-yl)-6-(hydroxymethyl)tetrahydro-2H-pyran-3,4,5-triol]
Subjects achieving HbA1c target of <6.5%, (%) [1]: (9.89) % | Subjects achieving therapeutic glycemic response, (%) [1]: (80.22) % | body weight, Mean (SD) [1]: 66.72(11.26) kg | body weight, Median [1]: 64.30 kg | fasting c-peptide, Mean (SD) [1]: 0.65(0.24) ng/mL | fasting c-peptide, Median [1]: 0.61 ng/mL | FPG change from baseline, LS mean (SE) (week 24): −32.53(1.76) mg/dL | HOMA-IR change from baseline, LS mean (SE) (week 24): −1.85(0.13) | HOMA-β change from baseline, LS mean (SE) (week 24): 6.94(3.17) | HbA1c change from baseline, LS mean (SE) (week 24): −0.80 % p | HbA1c change from baseline, Mean (SD) (week 24): −0.78 % p | HbA1c, Mean (week 24): 6.98% | LDL-C change from baseline, LS mean (SE) (week 24): 1.64(1.92) mg/dL | Subjects achieving HbA1c target of <7% (week 24): (61.05) % | Subjects achieving HbA1c<6.5% (week 24): 13.68% | Subjects achieving therapeutic response (HbA1c change >0.5% or HbA1c<7%) (week 24): 78.95% | UACR change from baseline, LS mean (SE) (week 24): −24.29(3.38) g/kg | UGCR change from baseline, LS mean (SE) (week 24): 60.48(2.12) mg/mg | diastolic blood pressure change from baseline, LS mean (SE) (week 24): −5.41(0.65) mmHg | fasting c-peptide change from baseline, LS mean (SE) (week 24): −0.10(0.16) ng/ml | leptin change from baseline, LS mean (SE) (week 24): −2.40(0.51) ng/mL | FPG change from baseline, LS mean difference (week 24, vs dapagliflozin): -3.38 mg/dL | HDL-C change from baseline, LS mean difference (week 24, vs dapagliflozin): -0.14 mg/dL | HOMA-IR change from baseline, LS mean difference (week 24, vs dapagliflozin): −0.53 | HOMA-β change from baseline, LS mean difference (week 24, vs dapagliflozin): −4.99 | HbA1c change from baseline, LS mean difference (week 24, vs dapagliflozin): −0.04 % p | LDL-C change from baseline, LS mean difference (week 24, vs dapagliflozin): 0.71 mg/dL | Odds ratio for achieving HbA1c<6.5% (week 24, vs dapagliflozin): 0.40 | Odds ratio for achieving HbA1c<7% (week 24, vs dapagliflozin): 0.97 | Odds ratio for achieving therapeutic response (week 24, vs dapagliflozin): 1.30 | UACR change from baseline, LS mean difference (week 24, vs dapagliflozin): −6.93 | UGCR change from baseline, LS mean difference (week 24, vs dapagliflozin): 15.54 mg/mg | body weight change from baseline, LS mean difference (week 24, vs dapagliflozin): -0.18 kg | diastolic blood pressure change from baseline, LS mean difference (week 24, vs dapagliflozin): −1.15 mmHg | fasting c-peptide change from baseline, LS mean difference (week 24, vs dapagliflozin): -0.06 ng/mL | leptin change from baseline, LS mean difference (week 24, vs dapagliflozin): -1.12 ng/mL | systolic blood pressure change from baseline, LS mean difference (week 24, vs dapagliflozin): 0.63 mmHg | total cholesterol change from baseline, LS mean difference (week 24, vs dapagliflozin): 2.40 mg/dL | triglyceride change from baseline, LS mean difference (week 24, vs dapagliflozin): 1.63 mg/dL | HbA1c change from baseline, LS mean (SE) [2]: −0.80(0.06) % p | HbA1c change from baseline, Mean (SD) [2]: −0.78(0.73) % p | Subjects achieving HbA1c target of <7% [2]: 61.05% | Change from baseline in total cholesterol, ANCOVA LS mean difference (week 24, modified per-protocol set 1, enavogliflozin 0.3 mg vs dapagliflozin 10 mg): 2.40 mg/dL | Change from baseline in Total cholesterol, ANCOVA LS mean (SE) [3]: 9.13(2.22) mg/dL | Change from baseline in Total cholesterol, Mean (SD) [3]: 7.99(20.78) mg/dL | Change from baseline in total cholesterol, Median [3]: 11.00 mg/dL | fasting Total cholesterol, Mean (SD) [3]: 159.42(32.17) mg/dL | fasting Total cholesterol, Median [3]: 157.00 mg/dL | Change from baseline in FPG, ANCOVA LS mean difference [4]: -3.38 mg/dL | Change from baseline in body weight, ANCOVA LS mean difference [4]: -0.18 kg | Change from baseline in fasting c-peptide, ANCOVA LS mean difference [4]: -0.06 ng/mL | Odds ratio for achieving HbA1c target of <6.5%, logistic regression model [4]: 0.40 | Odds ratio for achieving therapeutic glycemic response, logistic regression model [4]: 1.30 | Change from baseline in FPG, ANCOVA LS mean (SE) [5]: -32.53 mg/dL | Change from baseline in FPG, Mean (SD) [5]: -31.77 mg/dL | Change from baseline in FPG, Median [5]: -31.00 mg/dL | Change from baseline in body weight, ANCOVA LS mean (SE) [5]: −3.77(0.33) kg | Change from baseline in body weight, Mean (SD) [5]: −3.78(3.77) kg | Change from baseline in body weight, Median [5]: -3.60 kg | Change from baseline in fasting c-peptide, ANCOVA LS mean (SE) [5]: −0.10(0.02) ng/mL | Change from baseline in fasting c-peptide, Mean (SD) [5]: −0.10(0.16) ng/mL | Change from baseline in fasting c-peptide, Median [5]: -0.07 ng/mL | FPG, Mean (SD) [5]: 113.58 mg/dL | FPG, Median [5]: 113.00 mg/dL | Subjects achieving HbA1c target of <6.5%, (%) [5]: (13.68) % | Subjects achieving therapeutic glycemic response, (%) [5]: (78.95) % | body weight, Mean (SD) [5]: 66.39(10.90) kg | body weight, Median [5]: 64.40 kg | fasting c-peptide, Mean (SD) [5]: 0.62(0.22) ng/mL | fasting c-peptide, Median [5]: 0.56 ng/mL
